Consider 47 molecules from patent US8975264B2, “Compound acting as a cannabinoid receptor-1 inhibitor” (Amorepacific Corporation, priority 2010, dated 2015).

Where only a bound is given, the exact number is not on record here.

This assay addresses human CB1 (cannabinoid receptor 1) (Homo sapiens, UniProt P21554). The assay is described as follows: CB1 receptor inhibition effect: calcium ion influx assay (Fluo-4 NW) in Chem-1 cells after 1 μM R-(+)-WIN55212-2. It is filed as cell-based. As for the experimental part:
When cells in which the cannabinoid receptor 1 (CB1) is stably expressed are treated with a CB1 receptor agonist, the CB1 receptor is activated and influx of calcium ions into the cells increases. CB1 receptor inhibition effect of a test compound can be evaluated by measuring the degree of calcium influx inhibition after treating with the test compound.
First, Chem-1 cells (Chemicon International, #HTS019C) in which human CB1 cDNA is expressed stably were seeded onto a 96-well cell culture plate at a density of ˜50,000 cells/well and incubated overnight in a 5% CO2 incubator at 37° C. The next day, the culture medium was discarded and the cells were cautiously washed once using an assay buffer (HBSS containing 20 mM HEPES and 2.5 mM probenecid) with 200 μL/well. Calcium ion influx was measured using an assay kit (Fluo-4 NW calcium assay kit: Molecular Probes™, #F36206) according to the manufacturer's instructions. The compounds of Examples of desired concentration to be measured were comprised to 0.5% DMSO. For control, only 0.5% DMSO was used without the compounds of Examples. Reaction time was 10 minutes. After treating the Chem-1 cells stably expressing the CB1 receptor with 1 μM R-(+)-WIN55212-2 (Sigma, #W102), a CB1 receptor agonist, calcium ion (Ca^2+) flux induced thereby was measured for 80 seconds using Flex Station 3 (Molecular Device, USA).
The difference in calcium ion concentration of the cells treated with the compounds of Examples or those treated with 1 μM R-(+)-WIN55212-2 was obtained from the difference of the maximum and minimum values during the 80 seconds. Then, % inhibition of the compounds for the CB1 receptor was calculated using the following equation. % inhibition={1−(ΔRFUcompound−ΔRFUBlank)/(ΔRFUControl−ΔRFUBlank)}×100 [Equation]
ΔRFU: maximum relative fluorescence units−minimum relative fluorescence units
ΔRFUCompound: difference in maximum and minimum RFUs in the well where the compounds of Examples dissolved in DMSO to a final concentration of 0.5% and 1 μM R-(+)-WIN55212-2 dissolved in DMSO to a final concentration of 0.5% were added
ΔRFUBlank: difference in maximum and minimum RFUs in the well to which only 1% DMSO was added
ΔRFUControl: difference in maximum and minimum RFUs in the well where 0.5% DMSO and 1 μM R-(+)-WIN55212-2 dissolved in DMSO to a final concentration of 0.5% were added

The mark [1] stands for this setting: calcium ion influx in Chem-1 cells expressing human CB1, 1 μM R-(+)-WIN55212-2.

Chain of human CB1 (cannabinoid receptor 1) (P21554 whole entry): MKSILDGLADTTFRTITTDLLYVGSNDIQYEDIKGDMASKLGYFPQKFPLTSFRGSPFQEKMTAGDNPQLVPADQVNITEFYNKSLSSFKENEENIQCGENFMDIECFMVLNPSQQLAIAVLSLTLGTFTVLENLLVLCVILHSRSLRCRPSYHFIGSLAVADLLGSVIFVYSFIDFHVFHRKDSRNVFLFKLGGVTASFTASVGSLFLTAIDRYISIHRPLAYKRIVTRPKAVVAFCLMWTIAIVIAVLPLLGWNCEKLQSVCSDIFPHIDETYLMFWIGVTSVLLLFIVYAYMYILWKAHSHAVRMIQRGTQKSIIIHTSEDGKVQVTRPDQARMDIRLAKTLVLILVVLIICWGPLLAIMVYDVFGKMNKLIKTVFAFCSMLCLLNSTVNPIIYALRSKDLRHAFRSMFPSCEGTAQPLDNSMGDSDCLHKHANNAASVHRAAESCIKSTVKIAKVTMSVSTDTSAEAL

As to `C=Cc1ccc(-c2c(C)nn3c(-c4cccc(C)c4)cc(N4CCC[C@H]4CO)nc23)cc1` [Example 165], under setting [1], the IC50 (as a rule, the concentration that inhibits the measured activity by half) was 330 nM.

With `COc1cccc(-c2cc(N3CCC[C@H]3CO)nc3c(-c4ccc(Cl)cc4)c(C)nn23)c1` [Example 6], the IC50 under setting [1] is 200 nM.

Consider `CCc1cccc(-c2cc(N3CCC[C@H]3CO)nc3c(-c4ccc5c(c4)OCO5)c(C)nn23)c1` [Example 60], for which the IC50 under setting [1] is 210 nM.

Regarding `COc1ccc(-c2c(C)nn3c(-c4ccccc4)cc(N4CCC[C@H]4CO)nc23)cc1` [Example 37, (S)-(1-(3-(4-methoxyphenyl)-7-phenyl-2-methylpyrazolo[1,5-a]pyrimidin-5-yl)pyrrolidin-2-yl)methanol], the IC50 under setting [1] worked out at 140 nM.

In the case of `Cc1ccc(-c2c(C)nn3c(-c4ccc(F)cc4F)cc(N4CCC[C@H]4CO)nc23)cc1` [Example 34], the half-maximal inhibitory concentration (IC50) under setting [1] worked out at 220 nM.

Turning to `CCc1ccc(-c2c(C)nn3c(-c4ccc(C)cc4)cc(N4CCC[C@H]4CO)nc23)cc1` [Example 182], the IC50 under setting [1] was found to be 310 nM.

Regarding `Cc1ccc(-c2c(C)nn3c(-c4cccc(C)c4)cc(N4CCC[C@H]4CO)nc23)cc1` [Example 156], under setting [1], the IC50 is 46 nM.

`COc1ccc(-c2c(C)nn3c(-c4cccc(C)c4)cc(N4CCC[C@H]4CO)nc23)cc1` [Example 157, (S)-(1-(3-(4-methoxyphenyl)-7-(3-methylphenyl)-2-methylpyrazolo[1,5-a]pyrimidin-5-yl)pyrrolidin-2-yl)methanol]: under setting [1], the 50% inhibitory concentration (IC50) was 210 nM.

Regarding `Cc1ccc(-c2c(C)nn3c(-c4ccc(F)c(F)c4)cc(N4CCC[C@H]4CO)nc23)cc1` [Example 26, (S)-(1-(3-(4-methylphenyl)-7-(3,4-difluorophenyl)-2-methylpyrazolo[1,5-a]pyrimidin-5-yl)pyrrolidin-2-yl)methanol], the IC50 under setting [1] came out at 53 nM.

As to `Cc1nn2c(-c3ccccc3)cc(N3CCC[C@H]3CO)nc2c1-c1ccc(Cl)cc1` [Example 5], under setting [1], the IC50 came to 96 nM.

On to `CCCOc1ccc(-c2c(C)nn3c(-c4ccc(F)cc4)cc(N4CCC[C@H]4CO)nc23)cc1` [Example 74], for which the 50% inhibitory concentration (IC50) under setting [1] was 160 nM.

For the molecule `COc1cccc(-c2cc(N3CCC[C@H]3CO)nc3c(-c4ccc(C)cc4)c(C)nn23)c1` [Example 25, (S)-(1-(3-(4-methylphenyl)-7-(3-methoxyphenyl)-2-methylpyrazolo[1,5-a]pyrimidin-5-yl)pyrrolidin-2-yl)methanol], the half-inhibitory concentration (IC50) under setting [1] came to 39 nM.

`COc1ccc(-c2c(C)nn3c(-c4ccccc4F)cc(N4CCC[C@H]4CO)nc23)cc1` [Example 39]: under setting [1], the half-inhibitory concentration (IC50) amounted to 250 nM.

Take `CCOc1ccc(-c2c(C)nn3c(-c4ccc(F)c(F)c4)cc(N4CCC[C@H]4CO)nc23)cc1` [Example 48, (S)-{1-[7-(3,4-difluorophenyl)-3-(4-ethoxyphenyl)-2-methylpyrazolo[1,5-a]pyrimidin-5-yl)pyrrolidin-2-yl)methanol]: the IC50 under setting [1] is 180 nM.

Consider `CCOCc1nn2c(-c3cccc(F)c3)cc(N3CCC[C@H]3CO)nc2c1-c1ccc2c(c1)OCO2` [Example 214], for which the concentration for half-maximal inhibition (IC50) under setting [1] is 80 nM.

Regarding `CCOc1ccc(-c2c(C)nn3c(-c4ccc(F)cc4)cc(N4CCC[C@H]4CO)nc23)cc1` [Example 65], the concentration for half-maximal inhibition (IC50) under setting [1] was found to be 100 nM.

For the molecule `Cc1nn2c(-c3cccc(Cl)c3)cc(N3CCC[C@H]3CO)nc2c1-c1ccc(C(F)(F)F)cc1` [Example 173], the concentration for half-maximal inhibition (IC50) under setting [1] came to 250 nM.

Consider `COCc1nn2c(-c3ccc(F)cc3)cc(N3CCC[C@@H]3CO)nc2c1-c1ccc(OC)cc1` [Example 306], for which, under “Chem-1 cells stably expressing human CB1, agonist 1 μM R-(+)-WIN55212-2, compared with Examples 5 and 222”, the “CB1 receptor inhibition effect, (R)-isomers compared with (S)-isomers” value is “lower CB1 receptor inhibition effect than the compounds of Examples 5 and 222”. The inhibition (as a rule, the drop in the measured response relative to a control, in per cent) at 1 µM (compound at 1 μM, calcium ion influx in Chem-1 cells expressing human CB1, 1 μM R-(+)-WIN55212-2) is less than 5%.

Consider `OC[C@@H]1CCCN1c1cc(-c2cccc(C(F)(F)F)c2)n2ncc(-c3ccc(F)cc3)c2n1` [Example 276], for which, under setting [1], the concentration for half-maximal inhibition (IC50) stood at 340 nM.

As to `Cc1ccc(-c2c(C)nn3c(-c4ccc(Cl)cc4)cc(N4CCC[C@H]4CO)nc23)cc1` [Example 32], under setting [1], the IC50 is 140 nM.

`Cc1ccc(-c2c(C)nn3c(-c4ccc(F)c(Cl)c4)cc(N4CCC[C@H]4CO)nc23)cc1` [Example 36]: the IC50 under setting [1] amounted to 100 nM.

For `Cc1nn2c(-c3ccc(F)cc3)cc(N3CCC[C@H]3CO)nc2c1-c1ccc(OC(F)(F)F)cc1` [Example 84], the IC50 under setting [1] is 530 nM.

As for `COc1ccc(-c2c(C)nn3c(-c4ccc(Cl)cc4)cc(N4CCC[C@H]4CO)nc23)cc1` [Example 44], under setting [1], the IC50 amounted to 160 nM.

For `Cc1nn2c(-c3cccc(Cl)c3)cc(N3CCC[C@H]3CO)nc2c1-c1ccc(Cl)cc1` [Example 2, (S)-(1-(3-(4-chlorophenyl)-7-(3-chlorophenyl)-2-methylpyrazolo[1,5-a]pyrimidin-5-yl)pyrrolidin-2-yl)methanol], the IC50 under setting [1] was determined as 100 nM.

With `Cc1nn2c(-c3cccc(F)c3)cc(N3CCC[C@H]3CO)nc2c1-c1ccc2c(c1)OCO2` [Example 113], under setting [1], the IC50 came to 49 nM.

`CCOc1ccc(-c2c(C)nn3c(-c4cccc(F)c4)cc(N4CCC[C@H]4CO)nc23)cc1` [Example 112]: the IC50 under setting [1] came to 130 nM.

With `CCOc1ccc(-c2c(C)nn3c(-c4cccc(C)c4)cc(N4CCC[C@H]4CO)nc23)cc1` [Example 158], the IC50 under setting [1] came to 210 nM.

Consider `Cc1nn2c(-c3ccc(F)cc3)cc(N3CCC[C@H]3CO)nc2c1-c1ccc(C(F)F)cc1` [Example 67], for which the half-maximal inhibitory concentration (IC50) under setting [1] was 94 nM.

`Cc1nn2c(-c3cccc(C(F)(F)F)c3)cc(N3CCC[C@H]3CO)nc2c1-c1ccc(C(F)F)cc1` [Example 126]: the concentration for half-maximal inhibition (IC50) under setting [1] stood at 69 nM.

Turning to `CCOCc1nn2c(-c3cccc(C(F)(F)F)c3)cc(N(C)CCO)nc2c1-c1ccc(OC)cc1` [Example 247], under setting [1], the IC50 amounted to 16 nM.

For the molecule `Cc1nn2c(-c3ccc(F)cc3)cc(N3CCC[C@H]3CO)nc2c1-c1ccc(OC(C)C)cc1` [Example 85], the IC50 under setting [1] was found to be 470 nM.

For `Cc1nn2c(-c3ccc(F)cc3)cc(N3CCC[C@H]3CO)nc2c1-c1ccc(C#N)cc1` [Example 106], under setting [1], the half-inhibitory concentration (IC50) came to 250 nM.

Consider `CCOCc1nn2c(-c3cccc(C(F)(F)F)c3)cc(N3CCC[C@H]3CO)nc2c1-c1ccc(Cl)cc1` [Example 208], for which the IC50 under setting [1] came to 7 nM.

As for `OC[C@@H]1CCCN1c1cc(-c2ccc(F)cc2)n2nc(C3CC3)c(-c3ccc(Cl)cc3)c2n1` [Example 196, (S)-(1-(3-(4-chlorophenyl)-7-(4-fluorophenyl)-2-cyclopropylpyrazolo[1,5-a]pyrimidin-5-yl)pyrrolidin-2-yl)methanol], under setting [1], the IC50 stood at 140 nM.

Consider `Cc1ccc(-c2cc(N3CCC[C@H]3CO)nc3c(-c4ccc(Cl)cc4)c(C)nn23)cc1` [Example 11], for which the IC50 under setting [1] is 270 nM.

As to `CCOCc1nn2c(-c3ccc(F)cc3)cc(N(C)CCO)nc2c1-c1ccc(C)cc1` [Example 239, 2-{[2-ethoxymethyl-7-(4-fluorophenyl)-3-(4-methylphenyl)-pyrazolo[1,5-a]pyrimidin-5-yl]methylamino}ethanol], the concentration for half-maximal inhibition (IC50) under setting [1] is 28 nM.

Regarding `Cc1nn2c(-c3cccc(F)c3)cc(N3CCC[C@H]3CO)nc2c1-c1ccc(C(F)(F)F)cc1` [Example 115], the IC50 under setting [1] was 140 nM.

On to `Cc1nn2c(-c3ccc(F)cc3)cc(N3CCC[C@H]3CO)nc2c1-c1ccc(C(F)(F)F)cc1` [Example 69], for which the IC50 under setting [1] stood at 220 nM.

Consider `COc1ccc(-c2cc(N3CCC[C@H]3CO)nc3c(-c4ccc(C)cc4)c(C)nn23)cc1` [Example 27], for which the 50% inhibitory concentration (IC50) under setting [1] turned out to be 240 nM.

Take `Cc1nn2c(-c3cccc(C(F)(F)F)c3)cc(N3CCC[C@H]3CO)nc2c1-c1ccc(Cl)cc1` [Example 9]: under setting [1], the 50% inhibitory concentration (IC50) turned out to be 120 nM.

In the case of `COCc1nn2c(-c3cccc(Cl)c3)cc(N3CCC[C@H]3CO)nc2c1-c1ccc(OC)cc1` [Example 230], under setting [1], the half-inhibitory concentration (IC50) came to 18 nM.

As for `Cc1ccc(-c2cc(N3CCC[C@H]3CO)nc3c(-c4ccc(C(F)(F)F)cc4)c(C)nn23)cc1` [Example 180], the IC50 under setting [1] is 410 nM.

As to `CCOCc1nn2c(-c3cccc(C(F)(F)F)c3)cc(N3CCC[C@H]3CO)nc2c1-c1ccc(OC)cc1` [Example 212], the 50% inhibitory concentration (IC50) under setting [1] amounted to 26 nM.

Regarding `COCc1nn2c(-c3cccc(OC)c3)cc(N3CCC[C@H]3CO)nc2c1-c1ccc(OC)cc1` [Example 226], under setting [1], the concentration for half-maximal inhibition (IC50) is 50 nM.

Regarding `Cc1ccc(-c2c(C)nn3c(-c4cccc(C(F)(F)F)c4)cc(N4CCC[C@H]4CO)nc23)cc1` [Example 122], the IC50 under setting [1] is 45 nM.

For the molecule `C=Cc1ccc(-c2c(C)nn3c(-c4ccc(F)cc4)cc(N4CCC[C@H]4CO)nc23)cc1` [Example 71], under setting [1], the half-maximal inhibitory concentration (IC50) amounted to 210 nM.

On to `CCOCc1nn2c(-c3ccc(F)cc3)cc(N(C)CCO)nc2c1-c1ccc(OC)cc1` [Example 245], for which the IC50 under setting [1] was 440 nM.
